# Test results reported in PubChem BioAssay (NCI).
#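 48-hour exposure; five concentrations; linearly interpolated endpoints. GI50 marks 50% less growth. TGI is the concentration that stops growth completely.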
# How the values were obtained:
# Test in all cases: inhibition of tumour cell growth, NCI panel, 48 h
# [1] = test system: T-47D breast
# [2] = test system: MCF7 breast
# [3] = test system: OVCAR-3 ovarian
# [4] = test system: A549 NSCLC
# [5] = test system: MOLT-4 leukemia
# [6] = test system: HL-60(TB) leukemia
# [7] = test system: CCRF-CEM leukemia
# [8] = test system: UACC-62 melanoma
# [9] = test system: SF-268 CNS
# [10] = test system: A498 renal
# [11] = test system: SR leukemia
# [12] = test system: OVCAR-5 ovarian
# [13] = test system: SK-MEL-28 melanoma
# [14] = test system: CAKI-1 renal
# [15] = test system: U251 CNS
# [16] = test system: ACHN renal
# [17] = test system: DU-145 prostate
# [18] = test system: HCT-15 colon
# [19] = test system: RPMI-8226 leukemia
# [20] = test system: K-562 leukemia
# [21] = test system: HOP-92 NSCLC
# [22] = test system: SNB-75 CNS
# [23] = test system: LOX IMVI melanoma
# [24] = test system: MDA-MB-435
# [25] = test system: EKVX NSCLC
# [26] = test system: IGROV1 ovarian
# [27] = test system: SF-295 CNS
# [28] = test system: NCI-H226 lung
# [29] = test system: SF-539 CNS
# [30] = test system: UO-31 renal
# [31] = test system: HS 578T breast
# [32] = test system: HCC-2998 colon
# [33] = test system: RXF 393 renal
# [34] = test system: NCI-H522 lung
# [35] = test system: OVCAR-8 ovarian
# [36] = test system: NCI/ADR-RES ovarian
# [37] = test system: SN12C renal
# [38] = test system: KM12 colon
# [39] = test system: HT29 colon
# [40] = test system: PC-3 prostate
# [41] = test system: COLO 205 colon
# [42] = test system: MDA-MB-231 breast
# [43] = test system: NCI-H460 lung
# [44] = test system: SK-MEL-5 melanoma
# [45] = test system: HCT-116 colon
# [46] = test system: SK-MEL-2 melanoma
# [47] = test system: SNB-19 CNS
# [48] = test system: NCI-H23 lung
# [49] = test system: 786-0 renal
# [50] = test system: UACC-257 melanoma
# [51] = test system: MDA-N
# [52] = test system: BT-549 breast
# [53] = test system: SK-OV-3 ovarian
# [54] = test system: SW-620 colon
# [55] = test system: OVCAR-4 ovarian
# [56] = test system: M14 melanoma
# [57] = test system: MALME-3M melanoma
smiles,measurement,setting,value
COc1cc(N(CCC#N)CCC#N)ccc1/C(N=Nc1ccc(Cl)cc1)=N/NC(=O)c1cc(Br)ccc1O,GI50,[1],69.9 µg/mL
same,TGI,[1],> 150 µg/mL
same,GI50,[2],44.1 µg/mL
same,TGI,[2],> 150 µg/mL
same,GI50,[3],50 µg/mL
same,TGI,[3],> 150 µg/mL
same,GI50,[4],85.5 µg/mL
same,TGI,[4],> 150 µg/mL
same,GI50,[5],32.9 µg/mL
same,TGI,[5],> 150 µg/mL
same,GI50,[6],62.1 µg/mL
same,TGI,[6],> 150 µg/mL
same,GI50,[7],74 µg/mL
same,TGI,[7],> 150 µg/mL
same,GI50,[8],112 µg/mL
same,TGI,[8],> 150 µg/mL
same,GI50,[9],35 µg/mL
same,TGI,[9],> 150 µg/mL
same,GI50,[10],> 150 µg/mL
same,TGI,[10],> 150 µg/mL
same,GI50,[11],96.3 µg/mL
same,TGI,[11],> 150 µg/mL
same,GI50,[12],> 150 µg/mL
same,TGI,[12],> 150 µg/mL
same,GI50,[13],> 150 µg/mL
same,TGI,[13],> 150 µg/mL
same,GI50,[14],51.2 µg/mL
same,TGI,[14],> 150 µg/mL
same,GI50,[15],145 µg/mL
same,TGI,[15],> 150 µg/mL
same,GI50,[16],86.1 µg/mL
same,TGI,[16],> 150 µg/mL
same,GI50,[17],143 µg/mL
same,TGI,[17],> 150 µg/mL
same,GI50,[18],32.7 µg/mL
same,TGI,[18],66.4 µg/mL
same,GI50,[19],102 µg/mL
same,TGI,[19],> 150 µg/mL
same,GI50,[20],86.4 µg/mL
same,TGI,[20],> 150 µg/mL
same,GI50,[21],> 150 µg/mL
same,TGI,[21],> 150 µg/mL
same,GI50,[22],25 µg/mL
same,TGI,[22],95.1 µg/mL
same,GI50,[23],49.3 µg/mL
same,TGI,[23],> 150 µg/mL
same,GI50,[24],> 150 µg/mL
same,TGI,[24],> 150 µg/mL
same,GI50,[25],72.4 µg/mL
same,TGI,[25],> 150 µg/mL
same,GI50,[26],54.5 µg/mL
same,TGI,[26],> 150 µg/mL
same,GI50,[27],79.4 µg/mL
same,TGI,[27],> 150 µg/mL
same,GI50,[28],32.4 µg/mL
same,TGI,[28],128 µg/mL
same,GI50,[29],73.3 µg/mL
same,TGI,[29],> 150 µg/mL
same,GI50,[30],86.6 µg/mL
same,TGI,[30],> 150 µg/mL
same,GI50,[31],125 µg/mL
same,TGI,[31],> 150 µg/mL
same,GI50,[32],33.8 µg/mL
same,TGI,[32],81.8 µg/mL
same,GI50,[33],36.9 µg/mL
same,TGI,[33],> 150 µg/mL
same,GI50,[34],56.4 µg/mL
same,TGI,[34],> 150 µg/mL
same,GI50,[35],39 µg/mL
same,TGI,[35],108 µg/mL
same,GI50,[36],53.2 µg/mL
same,TGI,[36],> 150 µg/mL
same,GI50,[37],88.4 µg/mL
same,TGI,[37],> 150 µg/mL
same,GI50,[38],48 µg/mL
same,TGI,[38],129 µg/mL
same,GI50,[39],45.5 µg/mL
same,TGI,[39],> 150 µg/mL
same,GI50,[40],64.1 µg/mL
same,TGI,[40],> 150 µg/mL
same,GI50,[41],41.7 µg/mL
same,TGI,[41],127 µg/mL
same,GI50,[42],38.8 µg/mL
same,TGI,[42],> 150 µg/mL
same,GI50,[43],53.6 µg/mL
same,TGI,[43],> 150 µg/mL
same,GI50,[44],82 µg/mL
same,TGI,[44],> 150 µg/mL
same,GI50,[45],53.2 µg/mL
same,TGI,[45],> 150 µg/mL
same,GI50,[46],146 µg/mL
same,TGI,[46],> 150 µg/mL
same,GI50,[47],> 150 µg/mL
same,TGI,[47],> 150 µg/mL
same,GI50,[48],> 150 µg/mL
same,TGI,[48],> 150 µg/mL
same,GI50,[49],77.1 µg/mL
same,TGI,[49],> 150 µg/mL
same,GI50,[50],> 150 µg/mL
same,TGI,[50],> 150 µg/mL
same,GI50,[51],90.3 µg/mL
same,TGI,[51],> 150 µg/mL
same,GI50,[52],140 µg/mL
same,TGI,[52],> 150 µg/mL
same,GI50,[53],90.8 µg/mL
same,TGI,[53],> 150 µg/mL
same,GI50,[54],> 150 µg/mL
same,TGI,[54],> 150 µg/mL
same,GI50,[55],11.1 µg/mL
same,TGI,[55],37 µg/mL
same,GI50,[56],58.5 µg/mL
same,TGI,[56],> 150 µg/mL
same,GI50,[57],> 150 µg/mL
same,TGI,[57],> 150 µg/mL
